≈ marks a conversion by molar mass, not a printed value. Where “and” joins values, the source holds several entries; their conditions need not be identical. Equal entries are not always repeated. Entries after “also recorded” stand apart in the source; their conditions may differ. Structures can show the parent of a compound that is named as a salt. Marks after values point to notes of the source that are not given here.
Legend:
[1] = Transdermal permeation through human skin in Franz cell in vitro apparatus; settings: for Skin flux / permeation compared with other forms (in words): Franz cell; for Flux: individual Franz cell/donor; for Flux / Mean flux ± sd: vehicle 2% oleic acid: 2% dimethyl isosorbide: 96% propylene glycol; for Mean flux ± sd: mean over donors
[2] = cited from earlier work
Aqueous solubility = assay type: physicochemical; settings: aqueous solution
[3] = Saturated solubility in potential delivery vehicle (oleic acid/dimethyl isosorbide/propylene glycol); settings: in 2% oleic acid: 2% dimethyl isosorbide: 96% propylene glycol; for solubility: 2% oleic acid: 2% dimethyl isosorbide: 96% propylene glycol, 32 °C, organic solvent or mixture, thermodynamic from solid, Solubility at 32° C.
[4] = Yellow discoloration of the meptazinol gel on standing, effect of antioxidants; assay type: physicochemical; settings: antioxidant included in meptazinol gel; BHT 0.02-0.05%, ascorbic acid 0.05%
[5] = estimated from visual assessment only
[6] = listed as M HCl (1), hydrochloride
[7] = listed as M HCl (2), hydrochloride

Which “Skin flux / permeation compared with other forms (in words)” value [1] does the source give for `CCC1(c2cccc(O)c2)CCCCN(C)C1` (stereo not drawn) [Meptazinol free base, Meptazinol] here?
The value was “unexpectedly poor flux in comparison to the various salt forms”.

What about the Plasma half-life ([2]; in vivo) of the same compound?
The Plasma half-life was 1.5 to 2.0 h.

And the “Fraction of an oral dose removed by first pass metabolism through the liver” value ([2]; oral)?
Its value is “up to 98.1%”.

And the “Oral bioavailability, reported mean values” ([2]; oral)?
The value was 4-9%.

And the solubility (Aqueous solubility)?
The solubility was 0.17 mg/mL (≈ 0.729 mM).

And the solubility [3, 5]?
Its solubility is about 20 mg/mL (≈ 85.7 mM).

Which “Skin flux / permeation compared with other forms (in words)” value [1] does the source give for Meptazinol trifluoroacetate here?
The value was “more rapidly absorbed”.

What about the Flux ([1]; listed as M TFA) of the same compound?
Its Flux is 29.1 ug/cm^2/h and 422.2 ug/cm^2/h and 163.8 ug/cm^2/h and 282.3 ug/cm^2/h.

What about the “Mean flux ± sd” value [1] of the same compound?
Its value is 224.4 ± 167.6 ug/cm^2/h.

What about the “Solubility at 32° C.” value ([3]; measured by HPLC) of the same compound?
The value was 170* mg/ml.

With `O=C1O[C@H]([C@@H](O)CO)C(O)=C1O` [Ascorbic acid] as the compound, how does the “Effect on yellow discoloration of the gel” value (“Effect” for short) [4] read?
The value was “some reduction”.

With `COc1ccc(O)c(C(C)(C)C)c1` [butylated hydroxy anisole] as the compound, how does the “Effect” value [4] read?
Its value is “did not”.

For `Oc1cccc(O)c1O` [pyrogallol], which “Effect” value [4] is on record?
Its value is “did not”.

With Meptazinol tosylate as the compound, how does the “Skin flux / permeation compared with other forms (in words)” value [1] read?
Its value is “less effective in improving flux”.

And the Flux ([1]; listed as M tosylate)?
The Flux was 158.8 ug/cm^2/h and 165.0 ug/cm^2/h and 90.9 ug/cm^2/h and 39.6 ug/cm^2/h and 273.7 ug/cm^2/h and 87.4 ug/cm^2/h.

And the “Mean flux ± sd” value [1]?
The value was 135.9 ± 82.5 ug/cm^2/h.

And the “Solubility at 32° C.” value [3, 5]?
The value was “˜140** mg/ml”.

Which results are given for `CCC1(c2cccc(O)c2)CCCCN(C)C1` (stereo not drawn) [Meptazinol hydrochloride, reference compound]?
Skin flux / permeation compared with other forms (in words) ([1]; listed as hydrochloride, hydrochloride): more rapidly absorbed; Skin flux / permeation compared with other forms (in words) ([1]; listed as meptazinol hydrochloride, hydrochloride): much better permeant than the maleate; also recorded: higher flux rate than the camsylate; also recorded: substantially greater flux than the free base; also recorded: several times better than the meptazinol free base; Flux [1, 6]: 135.7 ug/cm^2/h and 218.0 ug/cm^2/h and 132.6 ug/cm^2/h and 197.1 ug/cm^2/h and 194.0 ug/cm^2/h and 162.5 ug/cm^2/h; Flux [1, 7]: 66.5 ug/cm^2/h and 222.6 ug/cm^2/h and 213.4 ug/cm^2/h (2×); Mean flux ± sd [1, 6]: 173.3 ± 35.2 ug/cm^2/h; Mean flux ± sd [1, 7]: 179.0 ± 75.1 ug/cm^2/h; solubility ([3]; measured by HPLC): 78 mg/mL

For `Cc1c(C)c2c(c(C)c1O)CC[C@@](C)(CCC[C@H](C)CCC[C@H](C)CCCC(C)C)O2` [alpha tocopherol], which “Effect” value [4] is on record?
The value was “did not”.

With `Cc1cc(C(C)(C)C)c(O)c(C(C)(C)C)c1` [butylated hydroxy toluene] as the compound, how does the “Effect” value [4] read?
The value was “completely eliminated”.

Which “Skin flux / permeation compared with other forms (in words)” value [1] does the source give for `CC1(C)C2CCC1(CS(=O)(=O)O)C(=O)C2.CCC1(c2cccc(O)c2)CCCCN(C)C1` (stereo not drawn) [Meptazinol camsylate] here?
Its value is “less effective in improving flux”.

What about the Flux ([1]; listed as M camsylate) of the same compound?
The Flux was 78.1 ug/cm^2/h and 110.9 ug/cm^2/h and 27.3 ug/cm^2/h and 45.1 ug/cm^2/h and 204.2 ug/cm^2/h and 9.5 ug/cm^2/h.

What about the “Mean flux ± sd” value [1] of the same compound?
Its value is 79.2 ± 71.2 ug/cm^2/h.

And the “Solubility at 32° C.” value [3, 5]?
Its value is “˜250** mg/ml”.

What does the source list for Meptazinol maleate?
Flux ([1]; listed as M maleate): 41.3 ug/cm^2/h and 91.3 ug/cm^2/h and 85.3 ug/cm^2/h and 93.9 ug/cm^2/h; Mean flux ± sd [1]: 78.0 ± 24.7 ug/cm^2/h; Solubility at 32° C. ([3]; measured by HPLC): 105* mg/ml

— patent publication US20070224253A1, “Transdermal Delivery of Meptazinol” (Shire Pharmaceuticals Inc., priority 2005, published 2007)
